The results in this text go back to ChEMBL document CHEMBL1140557, “SAR studies of 1,5-diarylpyrazole-based CCK1 receptor antagonists” (Bioorg Med Chem Lett, 2007).

Data set [1] can be described thus: Half life in rat. The data set is classed as ADME, organism-based. The following applies: in vivo.
The nature of data set [2]: Oral bioavailability in rat at 2 umol/kg. The class given is ADME, organism-based. Particulars: in vivo.

For orientation: half-life means how long it takes for the measured level to halve. Lower therefore signals fast loss. As usually defined, the bioavailability is the share of a dose that reaches the circulation, judged against a reference dose that is usually intravenous. High values mean good availability, low ones poor availability.

Molecules are shown by their SMILES.

For `COc1ccc(-n2nc(C[C@H](C(=O)O)c3cccc(C)c3)cc2-c2ccc(Cl)c(Cl)c2)cc1`, the half-life in data set [1] was 5.6 h. Besides, the bioavailability in data set [2] was 100%.
